The test system of one assay is MDA-MB-231. Kind of assay: Cell viability assay (SRB or CTG) in MDA-MB-231. The class given is cell-based. Particulars: Homo sapiens, MDA-MB-231, 72 h, 3 days after drug treatment. As for the experimental part:
(§1) Human breast carcinoma cell line, MDA-MB-231 and human endometrial cancer cell line, HEC-59 were purchased from ATCC (American Type Culture Collection; USA). MDA-MB-231 cells were cultured in Dulbecco's modified Eagle's medium (Lonza, NJ, USA), and HEC-59 were grown in Iscove's Modified Dulbecco's Medium (Lonza, NJ, USA), supplemented with 10% fetal bovine serum (FBS, Lonza), 1% non-essential amino acid (NEAA), 2 mM L-glutamine (Sigma Aldrich, MO, USA) and 50 U/ml penicillin/streptomycin (P/S). All cell lines were tested regularly using MycoAlert Mycoplasma Detection Kit (Lonza). The cumulative length of the cells between thawing and use in the experiments was less than 20 passages.
(§2) 4000 cells/well of MDA-MB-231 and HEC-59 cells were seeded in a 96 well plate in 80 μL media/well. Approximately 18 hours later, 3× drug solutions were prepared by serial dilution (100, 10, 5, 1, 0.5, 0.3, 0.1, 0.05, 0.01 μM), and the drug containing media was added to each well with a volume of 40 μL. For MDA-MB-231, 3 days after drug treatment, the SRB or CTG assay was performed. HEC59, the drug containing media was renewed at day 4. After 7 days total, the SRB or CTG assay was performed.

The next assay relates to HEC-59. As to the kind of experiment: Cell viability assay (SRB or CTG) in HEC-59. The class given is cell-based. Particulars: Homo sapiens, 7 days total, media renewed at day 4, SRB or CTG. How it is done:
as §1, §2

We go through 21 molecules from US11986475B1, “Compositions and methods for treating cancer” (A2A Pharmaceuticals, Inc., priority 2022, dated 2024).

A word on the IC50: it is the concentration at which inhibition is half-maximal. Higher therefore signals lower potency.

In the case of `C[C@@H]1CN(c2ncc(F)c(Nc3cc(-c4ccc(OC(F)F)cc4)cnn3)n2)C[C@@H](C)O1` [Compound 90, 5-(4-(difluoromethoxy)phenyl)-N-(2-((2R,6R)-2,6-dimethylmorpholino)-5-fluoropyrimidin-4-yl)pyridazin-3-amine], the 50% inhibitory concentration (IC50) with MDA-MB-231 was 0.533 µM; in the assay on HEC-59, 1.1 µM.
Turning to `C[C@H]1CN(c2ncc(F)c(Nc3cc(-c4ccc(OC(F)F)cc4)cnn3)n2)C[C@H](C)O1` [Compound 91, 5-(4-(difluoromethoxy)phenyl)-N-(2-((2S,6S)-2,6-dimethylmorpholino)-5-fluoropyrimidin-4-yl)pyridazin-3-amine], the concentration for half-maximal inhibition (IC50) came out at 0.328 µM in the assay on MDA-MB-231 and 0.2 µM in the assay with HEC-59.
On to `Fc1cnc(N2CCOC3CC32)nc1Nc1cc(-c2ccc(OC(F)F)cc2)cnn1` (stereo not drawn) [Compound 103, N-(2-(2-oxa-5-azabicyclo[4.1.0]heptan-5-yl)-5-fluoropyrimidin-4-yl)-5-(4-(difluoromethoxy)phenyl)pyridazin-3-amine], for which the half-maximal inhibitory concentration (IC50) with MDA-MB-231 and in the assay with HEC-59 was above 10 µM in each case.
On to `Fc1cnc(N2CCCC2)nc1Nc1cc(-c2ccc(OC(F)F)cc2)cnn1` [Compound 104, 5-(4-(difluoromethoxy)phenyl)-N-(5-fluoro-2-(pyrrolidin-1-yl)pyrimidin-4-yl)pyridazin-3-amine], for which the figures for the IC50 in the assay on MDA-MB-231 and with HEC-59 were 0.345 µM and 0.086 µM, respectively.
In the same order, the values of `C[C@@H]1CN(c2nc(F)cc(Nc3cc(-c4ccc(OC(F)F)cc4)cnn3)n2)C[C@H](C)O1` [Compound 131, 5-(4-(difluoromethoxy)phenyl)-N-(2-((2R,6S)-2,6-dimethylmorpholino)-6-fluoropyrimidin-4-yl)pyridazin-3-amine] are 0.181 µM and 0.142 µM.
On to `C[C@@H]1CN(c2nccc(Nc3cc(-c4ccc(OC(F)F)cc4)cnc3F)n2)C[C@H](C)O1` [Compound 182, N-(5-(4-(difluoromethoxy)phenyl)-2-fluoropyridin-3-yl)-2-((2R,6S)-2,6-dimethylmorpholino)pyrimidin-4-amine], for which the IC50 with MDA-MB-231 was found to be 1.09 µM; in the assay with HEC-59, 0.29 µM.
In the same order, the values of `C[C@@H]1CN(c2ccc(F)c(Nc3cc(-c4ccc(OC(F)F)cc4)cnn3)n2)C[C@H](C)O1` [Compound 223, 5-(4-(difluoromethoxy)phenyl)-N-(6-((2R,6S)-2,6-dimethylmorpholino)-3-fluoropyridin-2-yl)pyridazin-3-amine] are 0.084 µM and 0.061 µM.
`C[C@@H]1CN(c2nccc(Nc3cc(-c4ccc(OC(F)F)cc4)c[nH]c3=O)n2)C[C@H](C)O1` [Compound 264, 5-(4-(difluoromethoxy)phenyl)-3-((2-((2R,6S)-2,6-dimethylmorpholino)pyrimidin-4-yl)amino)pyridin-2(1H)-one]: the IC50 with MDA-MB-231 came to 0.202 µM; in the assay with HEC-59 it was 0.121 µM.
For the molecule `COc1ncc(-c2ccc(OC(F)F)cc2)cc1Nc1ccnc(N2C[C@@H](C)O[C@@H](C)C2)n1` [Compound 305, N-(5-(4-(difluoromethoxy)phenyl)-2-methoxypyridin-3-yl)-2-((2R,6S)-2,6-dimethylmorpholino)pyrimidin-4-amine], the concentration for half-maximal inhibition (IC50) with MDA-MB-231 and in the assay with HEC-59 was above 10 µM in each case.
Consider `C[C@@H]1CN(c2ncc(F)c(Nc3cc(-c4ccc(OC(F)F)cc4)c[nH]c3=O)n2)C[C@H](C)O1` [Compound 346, 5-(4-(difluoromethoxy)phenyl)-3-((2-((2R,6S)-2,6-dimethylmorpholino)-5-fluoropyrimidin-4-yl)amino)pyridin-2(1H)-one], for which the IC50 is 1.05 µM in the assay with MDA-MB-231 and 0.784 µM in the assay with HEC-59.
For `COc1ncc(-c2ccc(OC(F)F)cc2)cc1Nc1nc(N2C[C@@H](C)O[C@@H](C)C2)ncc1F` [Compound 387, N-(5-(4-(difluoromethoxy)phenyl)-2-methoxypyridin-3-yl)-2-((2R,6S)-2,6-dimethylmorpholino)-5-fluoropyrimidin-4-amine], the IC50 with MDA-MB-231 and in the assay on HEC-59 was above 10 µM each time.
Take `C[C@@H]1CN(c2cc(Nc3cc(-c4ccc(OC(F)F)cc4)cnn3)ccn2)C[C@H](C)O1` [Compound 428, 5-(4-(difluoromethoxy)phenyl)-N-(2-((2R,6S)-2,6-dimethylmorpholino)pyridin-4-yl)pyridazin-3-amine]: the IC50 is 0.794 µM in the assay with MDA-MB-231 and above 10 µM in the assay with HEC-59.
As to `C[C@@H]1CN(c2cc(Nc3cc(-c4ccc(OC(F)F)cc4)cnn3)c(F)cn2)C[C@H](C)O1` [Compound 469, 5-(4-(difluoromethoxy)phenyl)-N-(2-((2R,6S)-2,6-dimethylmorpholino)-5-fluoropyridin-4-yl)pyridazin-3-amine], the IC50 worked out at 0.645 µM in the assay with MDA-MB-231 and 1.3 µM in the assay on HEC-59.
In the same order, the values of `Cc1nnc(Nc2nc(N3C[C@@H](C)O[C@@H](C)C3)ncc2F)cc1-c1ccc(OC(F)F)cc1` [Compound 508, 5-(4-(difluoromethoxy)phenyl)-N-(2-((2R,6S)-2,6-dimethylmorpholino)-5-fluoropyrimidin-4-yl)-6-methylpyridazin-3-amine] are above 10 µM and 7.26 µM.
Take `COc1nnc(Nc2nc(N3C[C@@H](C)O[C@@H](C)C3)ncc2F)cc1-c1ccc(OC(F)F)cc1` [Compound 526, 5-(4-(difluoromethoxy)phenyl)-N-(2-((2R,6S)-2,6-dimethylmorpholino)-5-fluoropyrimidin-4-yl)-6-methoxypyridazin-3-amine]: the IC50 in the assay with MDA-MB-231 is above 10 µM; in the assay on HEC-59 it was 1.18 µM.
For the molecule `CNc1nnc(Nc2nc(N3C[C@@H](C)O[C@@H](C)C3)ncc2F)cc1-c1ccc(OC(F)F)cc1` [Compound 544, 4-(4-(difluoromethoxy)phenyl)-N6-(2-((2R,6S)-2,6-dimethylmorpholino)-5-fluoropyrimidin-4-yl)-N3-methylpyridazine-3,6-diamine], the results for the IC50 in the assay on MDA-MB-231 and in the assay on HEC-59 were above 10 µM and 2.72 µM, respectively.
In the same order, the values of `C[C@@H]1CN(c2ncc(F)c(Nc3cc(-c4ccc(OC(F)F)cc4)c(C(=O)O)nn3)n2)C[C@H](C)O1` [Compound 562, 4-(4-(difluoromethoxy)phenyl)-6-((2-((2R,6S)-2,6-dimethylmorpholino)-5-fluoropyrimidin-4-yl)amino)pyridazine-3-carboxylic acid] are above 10 µM and above 10 µM.
As to `CC(=O)c1nnc(Nc2nc(N3C[C@@H](C)O[C@@H](C)C3)ncc2F)cc1-c1ccc(OC(F)F)cc1` [Compound 580, 1-(4-(4-(difluoromethoxy)phenyl)-6-((2-((2R,6S)-2,6-dimethylmorpholino)-5-fluoropyrimidin-4-yl)amino)pyridazin-3-yl)ethan-1-one], the IC50 with MDA-MB-231 and with HEC-59 was above 10 µM throughout.
As to `C[C@@H]1CN(c2ncc(F)c(Nc3cc(-c4ccc(OC(F)F)cc4)c(N)nn3)n2)C[C@H](C)O1` [Compound 598, 5-(4-(difluoromethoxy)phenyl)-N3-(2-((2R,6S)-2,6-dimethylmorpholino)-5-fluoropyrimidin-4-yl)pyridazine-3,6-diamine], the IC50 with MDA-MB-231 came out at 0.805 µM; in the assay with HEC-59, 9.85 µM.
In the same order, the values of `COC(=O)c1nnc(Nc2nc(N3C[C@@H](C)O[C@@H](C)C3)ncc2F)cc1-c1ccc(OC(F)F)cc1` [Compound 616, methyl 4-(4-(difluoromethoxy)phenyl)-6-((2-((2R,6S)-2,6-dimethylmorpholino)-5-fluoropyrimidin-4-yl)amino)pyridazine-3-carboxylate] are above 10 µM and above 10 µM.
`CNC(=O)c1nnc(Nc2nc(N3C[C@@H](C)O[C@@H](C)C3)ncc2F)cc1-c1ccc(OC(F)F)cc1` [Compound 634, 4-(4-(difluoromethoxy)phenyl)-6-((2-((2R,6S)-2,6-dimethylmorpholino)-5-fluoropyrimidin-4-yl)amino)-N-methylpyridazine-3-carboxamide]: the IC50 in the assay on MDA-MB-231 and with HEC-59 was above 10 µM each time.
